In patent US12691101B2, “Compound and method for preventing or treating of respiratory diseases comprising the same as an active ingredient” (YONSEI UNIVERSITY, UNIVERSITY - INDUSTRY FOUNDATION (UIF), priority 2019, dated 2026):
Entries after “also recorded” stand apart in the source; their conditions may differ.

Columns and labels:
[1] = target: T1, human wild-type (WT)-pendrin (Homo sapiens, UniProt O43511); assay: Pendrin-mediated Cl^−/I^− exchange activity, YFP fluorescence in CHO-K1 cells; type: cell-based; conditions: for inhibition at 30 µM: CHO-K1, 30 μM, read-out: Pendrin inhibitory activity at 30 μM (%); for inhibition of pendrin Cl^−/I^− exchange activity: CHO-K1 cells, pretreated 10 minutes
T1 construct: expressed in transfected cells
T1 sequence (O43511 1-780): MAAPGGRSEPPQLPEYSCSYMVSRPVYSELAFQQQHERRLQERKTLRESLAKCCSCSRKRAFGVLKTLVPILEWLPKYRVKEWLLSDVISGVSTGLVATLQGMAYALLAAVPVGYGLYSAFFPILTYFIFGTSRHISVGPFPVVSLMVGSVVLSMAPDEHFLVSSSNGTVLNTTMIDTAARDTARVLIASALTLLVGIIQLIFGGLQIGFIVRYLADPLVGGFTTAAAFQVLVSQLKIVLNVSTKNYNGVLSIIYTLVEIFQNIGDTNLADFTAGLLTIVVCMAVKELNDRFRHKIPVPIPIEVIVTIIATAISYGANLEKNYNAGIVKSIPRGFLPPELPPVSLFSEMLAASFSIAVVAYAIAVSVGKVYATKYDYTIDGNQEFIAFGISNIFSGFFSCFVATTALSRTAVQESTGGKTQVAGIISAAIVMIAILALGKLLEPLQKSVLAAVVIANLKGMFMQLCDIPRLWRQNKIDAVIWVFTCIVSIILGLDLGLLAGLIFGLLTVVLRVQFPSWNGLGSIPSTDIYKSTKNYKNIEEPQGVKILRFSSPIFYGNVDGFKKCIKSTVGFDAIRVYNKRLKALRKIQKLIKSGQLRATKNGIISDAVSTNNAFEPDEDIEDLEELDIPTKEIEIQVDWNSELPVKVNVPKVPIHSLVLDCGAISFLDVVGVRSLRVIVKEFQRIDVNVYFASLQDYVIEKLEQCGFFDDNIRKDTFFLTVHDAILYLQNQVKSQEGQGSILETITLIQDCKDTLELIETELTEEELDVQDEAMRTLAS

[2] = target: T1, human wild-type (WT)-pendrin; assay: Pendrin-mediated Cl^−/HCO3^− exchange activity in CHO-K1 cells; type: cell-based; conditions: for inhibition of pendrin Cl^−/HCO3^− exchange activity: CHO-K1 cells, pretreated 10 minutes
Protocol: For measurement of Cl^−/HCO3^− exchange activity, intracellular pH (pHi) was measured in WT-pendrin expressing CHO-K1 and HNE cells using pH sensor SNARF5-AM (Molecular Probes). The cells were treated with 5 μM SNARF5-AM for 30 minutes, and then were equipped in a perfusion chamber on the stage of a reverse fluorescence microscope (Nikon, Tokyo, Japan) equipped with a cooled charge-coupled device camera (Zyla sCMOS), image acquisition and analysis software (Meta Imaging Series 7.7). The cells were perfused with a HCO3^− buffer solution containing 120 NaCl, 5 KCl, 1 MgCl2, 1 CaCl2, 10 D-glucose, 5 HEPES, and 25 NaHCO3 (pH 7.4) (mM). To measure the Cl^−/HCO3^− exchange activity, the HCO3^− buffer solution was changed to Cl^−-free HCO3^− buffer solution. When external Cl^−-free HCO3^− buffer solution is applied, the outflow of Cl^− and inflow of HCO3^− are increased by pendrin. To maintain the pH of the HCO3^− buffer solution, the solution was continuously gas treated with 95% O2 and 5% CO2. SNARF5 fluorescence was recorded at 515±10 nm of the excitation wavelength and 640±10 nm of the emission wavelength, and intracellular pH calibration was performed with a solution including 145 mM KCl, 10 mM HEPES and […] nigericin having a calibrated pH to 6.2-7.6.
When the CHO-K1 cells overexpressing WT-pendrin and iodine sensitive YFP are treated with a high concentration Cl^− solution, Cl^− moves to the cells and HCO3^− moves outside of the cells, and this change induces acidification of intracellular pH with reduction of YFP fluorescence.

[3] = compounds showing pendrin inhibitory activity of 50% or more at 30 μM, read-out: IC50

SMILES | inhibition at 30 µM [1] [%] | inhibition of pendrin Cl^−/I^− exchange activity [1] | IC50 ([1]; FIG. 4(b), read-out: inhibitory effect on the Cl—/I— exchange activity: IC50) [nM] | IC50 [1, 3] [nM] | inhibition of pendrin Cl^−/HCO3^− exchange activity [2] | IC50 ([1]; FIG. 4(a), read-out: 50% inhibition of Cl^−/I^− exchange activity) [nM] | IC50 ([2]; FIG. 4(a), read-out: 50% inhibition of Cl^−/HCO3^− exchange activity) [µM]
CC(C)(C)c1ccc(C2=NC(=Cc3ccc[nH]3)C(=O)O2)cc1 [F10, 4-((1H-pyrrol-2-yl)methylene)-2-(4-(tert-butyl)phenyl)oxazol-5 (4H)-one] | 100 | strongly inhibit | ~80 | 80 ± 20 | strongly inhibit | – | –
CC(C)(C)c1ccc(C2=NC(=Cc3cccs3)C(=O)O2)cc1 [F56, 2-(4-(tert-butyl)phenyl)-4-(thiophen-2-ylmethylene)oxazol-5(4H)-one] | 84.7 | significantly inhibited; also recorded: strongly inhibited | – | 3300 ± 640 | significantly inhibited; also recorded: strongly inhibited | ~3000 | ~10
